Assays:
NK2 receptor = assay: Antagonism of NKA-induced respiratory effects in conscious guinea pigs; type: in vivo, guinea pig; conditions: for dyspnea incidence / dyspnea onset: i.v. 20 min prior to NKA aerosol (0.05%); for dyspnea onset: mean and SEM; for effect on NKA-induced respiratory effects (in words): NKA aerosol, dose dependent
Method: (§1) In vivo experiments were performed using male Duncan Hartley guinea pigs (250-350g). Changes in conscious breathing patterns were monitored in four animals simultaneously using modified whole body plethysmography consisting of four small plexiglass boxes each connected to a reference box via Validyne DP 45-16 differential pressure transducers. The 4 boxes were equipped with an air supply line (also used for aerosol delivery) and an exhaust air line. Supply and exhaust lines were of the same length and narrow bore and arose from a common supply chamber and vented to a common exhaust chamber. This system was used to ensure that fluctuations in supply air and atmospheric pressure would remain in phase and be eliminated from the net signal by the differential pressure transducers. The analog pressure signals were digitalized via a Data Translation DT2821 A to D board. Data were collected at a rate of 100 samples/second/animal. Each cycle of pressure change was analyzed using the following parameters: rising and falling slope determined between minimum and maximum pressures, the ratio of rising over falling slope, and the magnitude of the change between initial trough pressure and peak cycle pressure. Using these values (and observing the animals) the pressure cycles were characterized into normal breaths, forced exhalations (apparent by abdominal heaving), significant respiratory events (SREs; usually coughs, less often sneezes or gasps which were characterized by transient, extremely large pressure increases which were distinguishable from noise) and movement/noise with a PCAT 286 running a System V UNIX operating system. Dyspnea was defined as a significant, sustained increase in plethysmograph pressure which was associated with an observable shift to labored breathing in the animal.
(§2) During the course of a typical experiment in which airway responsiveness to various bronchoconstricting agents was examined, aerosols were delivered for 19 min (0.33 ml/min) using a DeVilbiss Ultraneb 99 ultrasonic nebulizer and animals monitored during this time. Prior to nebulization, 1 min of resting breathing was collected to establish a baseline pressure. […] The vehicle for nebulization of all bronchoconstrictive agents was phosphate buffered saline (pH 7.4) which elicited no respiratory effects itself. Putative tachykinin antagonists were administered either (i.v.) 20 min prior to onset of aerosol exposure or orally 1 hour prior to onset (to guinea pigs after an overnight fast).

NK1 and NK2 receptors = assay: Modulation of respiratory effects produced by capsaicin aerosol in conscious guinea pigs; type: in vivo, guinea pig; conditions: for dyspnea onset / maximum pressure increase: capsaicin aerosol; for dyspnea onset / maximum pressure increase / SRE number (coughs/gasps): mean and SEM; for SRE number (coughs/gasps): during 19 min capsaicin exposure; for dyspnea incidence: i.v. 20 min prior to capsaicin aerosol (0.001%)
Method: as §1, §2
Capsaicin aerosol is known to promote release of the tachykinins SP and NKA from sensory nerves in the airways of guinea pigs which may then act upon NK1 and NK2 receptors, respectively to elicit respiratory effects.

NK1 receptor = target: T1, NK1 receptor (Cavia porcellus, UniProt P30547); assay: Antagonism of SP-induced plasma protein extravasation in guinea pig trachea; type: in vivo
T1 construct: evaluated in guinea pig lungs; tissue Keystone Biologicals, Cleveland, OH; host or cells: guinea pig lung
T1 sequence (P30547 whole entry): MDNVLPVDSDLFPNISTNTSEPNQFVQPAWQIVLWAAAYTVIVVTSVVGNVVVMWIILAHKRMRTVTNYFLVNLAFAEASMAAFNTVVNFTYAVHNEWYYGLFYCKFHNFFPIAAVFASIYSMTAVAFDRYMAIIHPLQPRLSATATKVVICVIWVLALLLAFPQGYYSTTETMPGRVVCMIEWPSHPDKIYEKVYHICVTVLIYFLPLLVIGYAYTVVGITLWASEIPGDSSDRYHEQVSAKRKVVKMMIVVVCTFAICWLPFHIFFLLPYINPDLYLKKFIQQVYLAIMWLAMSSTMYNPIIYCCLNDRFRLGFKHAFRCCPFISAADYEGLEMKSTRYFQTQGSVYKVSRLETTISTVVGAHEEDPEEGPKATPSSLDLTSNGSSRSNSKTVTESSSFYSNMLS
Method: SP-induced protein leakage through postcapillary venules was assessed by measuring Evans Blue dye accumulation in guinea pig trachea. Animals were anesthetized with pentobarbital then injected with Evans Blue dye (20 mg/kg, i.v., prepared in 0.9% NaCl solution). One minute after dye administration, the antagonist was administered (i.v.) followed by SP (0.3 nmole/kg, i.v.) and, after 5 min, excess dye removed from the circulation by transcardiac perfusion with 50 ml 0.9% NaCl solution. The trachea and primary bronchi were removed, blotted dry and weighed. Dye quantitation was performed spectrophotometrically ([…]) after extracting tissues in formamide for 24 hr at 50° C.. Values were subtracted from background (dye only, no agonist). ED50 (dose of compound which inhibits SP-induced plasma protein extravasation by 50%) was calculated from linear regression analysis.

COc1cc(C(=O)N2CCC(CCN3CCC(C(N)=O)(c4ccccc4)CC3)(c3ccc(Cl)c(Cl)c3)C2)cc(OC)c1OC.Cl (single isomer, unassigned; (+)) [Example 20A, (+)-1-[2-[3-(3,4-dichloro-phenyl)-1-(3,4,5-trimethoxy-benzoyl)-pyrrolidin-3-yl]-ethyl]-4-phenyl-piperidine-4-carboxylic acid amide hydrochloride]
dyspnea incidence (NK2 receptor; 1 mg/kg): 100%
dyspnea onset (NK2 receptor; 1 mg/kg): 451 ± 30 s
dyspnea incidence (NK2 receptor; 5 mg/kg): 90%
dyspnea onset (NK2 receptor; 5 mg/kg): 706 ± 82 s
dyspnea incidence (NK2 receptor; 10 mg/kg): 70%
dyspnea onset (NK2 receptor; 10 mg/kg): 829 ± 105 s
effect on NKA-induced respiratory effects (in words) (NK2 receptor): reduced the effects of NKA aerosol
dyspnea onset (NK1 and NK2 receptors; 1 mg/kg i.v.): 331 ± 22 s
maximum pressure increase (NK1 and NK2 receptors; 1 mg/kg i.v.): 1.0 ± 0.1 mmH2 O
SRE number (coughs/gasps) (NK1 and NK2 receptors; 1 mg/kg i.v.): 9.9 ± 2.7
dyspnea incidence (NK1 and NK2 receptors; 1 mg/kg): 77.8%
dyspnea onset (NK1 and NK2 receptors; 2.5 mg/kg i.v.): 426 ± 57 s
maximum pressure increase (NK1 and NK2 receptors; 2.5 mg/kg i.v.): 0.6 ± 0.1 mmH2 O
SRE number (coughs/gasps) (NK1 and NK2 receptors; 2.5 mg/kg i.v.): 8.3 ± 1.6
dyspnea incidence (NK1 and NK2 receptors; 2.5 mg/kg): 100%
dyspnea onset (NK1 and NK2 receptors; 5 mg/kg i.v.): 597 ± 186 s
maximum pressure increase (NK1 and NK2 receptors; 5 mg/kg i.v.): 0.8 ± 0.06 mmH2 O
SRE number (coughs/gasps) (NK1 and NK2 receptors; 5 mg/kg i.v.): 4.4 ± 1.9
dyspnea incidence (NK1 and NK2 receptors; 5 mg/kg): 44.4%
dyspnea onset (NK1 and NK2 receptors; 10 mg/kg i.v.): 592 ± 71 s
maximum pressure increase (NK1 and NK2 receptors; 10 mg/kg i.v.): 0.8 ± 0.1 mmH2 O
SRE number (coughs/gasps) (NK1 and NK2 receptors; 10 mg/kg i.v.): 3.3 ± 1.1
dyspnea incidence (NK1 and NK2 receptors; 10 mg/kg): 55.6%
effect on capsaicin-induced respiratory effects (in words) (NK1 and NK2 receptors; intravenous): attenuate capsaicin-induced respiratory effects
ED50 (NK1 receptor; guinea pig, iv, i.v. 2 min prior to SP, mean (95% confidence limits), at least 3 doses, at least 4 animals per dose, read-out: ED50 for inhibition of SP-induced plasma protein extravasation): 0.2 mg/kg
relative potency against SP-induced plasma protein extravasation (in words) (NK1 receptor; i.v.): equipotent NK-1 receptor antagonists

COc1cc(C(=O)N2CCC(CCN3CCC(C(N)=O)(c4ccccc4)CC3)(c3ccc(Cl)c(Cl)c3)C2)cc(OC)c1OC (stereo not shown) [Example 3, 1-[2-[3-(3,4-dichloro-phenyl)-1-(3,4,5-trimethoxy-benzoyl)-pyrrolidin-3-yl]-ethyl]-4-phenyl-piperidine-4-carboxylic acid amide]
dyspnea incidence (NK2 receptor; 5 mg/kg): 86%
dyspnea incidence (NK2 receptor; 10 mg/kg): 60%
effect on NKA-induced respiratory effects (in words) (NK2 receptor): reduced the effects of NKA aerosol
relative potency against SP-induced plasma protein extravasation (in words) (NK1 receptor; i.v.): equipotent NK-1 receptor antagonists
antagonism of SP-induced plasma protein extravasation (in words) (NK1 receptor; i.v., FIG. 2): dose related antagonism of SP-induced plasma protein extravasation in guinea pig trachea
